Experimental data taken from patent US4652642A, “Azidobenzazepines” (SmithKline Beckman Corporation, priority 1984, dated 1987).

Legend:
α2 sites [1] = assay: protection against photolytic deactivation by concomitant adrenoceptor agents; format: binding; settings: concomitant with the 9-azido-3-methyl-6-chloro compound, ultraviolet light
α2 sites [2] = assay: competitive binding to α2 sites
α2 sites [3] = assay: photolytic inactivation of α2 binding on ultraviolet irradiation
[4] = molecular target: T1, prejunctional alpha2 (α2-adrenoceptor) (Cavia porcellus, UniProt Q60474); assay: prejunctional alpha2-antagonist activity, isolated superfused guinea pig left atrium (clonidine concentration-response shift); format: cell-based; settings: clonidine as agonist, superfused with antagonist for thirty minutes, read-out: receptor dissociation constant of the antagonist (KB)
T1 construct: The left atrium is removed, dissected free of extraneous tissue and mounted in a 2 ml superfusion chamber; from tissue; host or cells: guinea pig (male) left atrium, sympathetic nerve endings
T1 sequence (Q60474 1-464): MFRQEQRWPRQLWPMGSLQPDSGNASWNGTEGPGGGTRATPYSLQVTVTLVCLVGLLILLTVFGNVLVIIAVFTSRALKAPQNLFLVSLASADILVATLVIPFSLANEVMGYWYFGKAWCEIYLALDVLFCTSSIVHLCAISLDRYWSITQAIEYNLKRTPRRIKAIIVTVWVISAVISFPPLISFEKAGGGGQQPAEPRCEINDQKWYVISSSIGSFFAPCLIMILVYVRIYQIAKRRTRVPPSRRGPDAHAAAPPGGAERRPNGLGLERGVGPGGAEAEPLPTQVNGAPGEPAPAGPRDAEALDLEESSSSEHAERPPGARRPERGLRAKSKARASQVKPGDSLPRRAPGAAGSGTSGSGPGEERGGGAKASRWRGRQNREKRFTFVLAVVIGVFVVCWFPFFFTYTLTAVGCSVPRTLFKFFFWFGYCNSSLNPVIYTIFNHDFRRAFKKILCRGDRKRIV
Protocol: Briefly, the heart is removed from a pentobarbital-anesthetized male guinea pig. The left atrium is removed, dissected free of extraneous tissue and mounted in a 2 ml superfusion chamber. The tissue is paced at 60 pulse/minute and the sympathetic nerves excited at 6 minute intervals by field stimulation. The response to nerve stimulation is measured as the difference in contractile force between the basal contraction and peak contraction following a nerve stimulation. A concentration-response curve for clonidine (a known alpha2 -agonist) is prepared by administering increasing concentrations of clonidine following each successive stimulation. The tissue is, then, superfused with the alpha2 -antagonist to be tested for thirty minutes and the clonidine concentration-effect curve is repeated in the presence of antagonist. The receptor dissociation constant of the antagonist (KB) is defined as the antagonist concentration required to shift the log concentration-response curve of the agonist to the right by a factor of 2.
Pharmacol. 309 217-224 (1979). The preferred species of this invention, i.e. the 9-azido-3-methyl-6-chloro compound, has a KB value of 158 nM in the atrium test.

Nc1cc(Cl)c(NC2=NCCN2)c(Cl)c1 [p-aminoclonidine]
effect of concomitant presence on photolytic deactivation (α2 sites [1]): complete protection

COc1cc2nc(N3CCN(C(=O)c4ccco4)CC3)nc(N)c2cc1OC [Prazosin]
effect of concomitant presence on photolytic deactivation (α2 sites [1]): no effect

CN1CCc2c(Cl)ccc(N=[N+]=[N-])c2CC1 [9-azido-3-methyl-6-chloro compound, 9-azido-6-chloro-3-methyl-2,3,4,5-tetrahydro-1H-3-benzazepine]
mode of binding to α2 sites (α2 sites [2]; without irradiation): bind competitively | Ki (α2 sites [2]; α2 sites): 42 nM | binding effect when irradiated with ultraviolet light (α2 sites [3]): the binding effect is made irreversible | dependence of photolytic inactivation (α2 sites [3]; irradiated with ultraviolet light): concentration and time dependent | Kb [4]: 158 nM

Cc1ccc(N(CC2=NCCN2)c2cccc(O)c2)cc1 [phentolamine]
effect of concomitant presence on photolytic deactivation (α2 sites [1]): partially blocks the photolytic deactivation
